The assay addresses T1, P2X7 (UniProt Q99572).
T1 sequence (Q99572 1-595): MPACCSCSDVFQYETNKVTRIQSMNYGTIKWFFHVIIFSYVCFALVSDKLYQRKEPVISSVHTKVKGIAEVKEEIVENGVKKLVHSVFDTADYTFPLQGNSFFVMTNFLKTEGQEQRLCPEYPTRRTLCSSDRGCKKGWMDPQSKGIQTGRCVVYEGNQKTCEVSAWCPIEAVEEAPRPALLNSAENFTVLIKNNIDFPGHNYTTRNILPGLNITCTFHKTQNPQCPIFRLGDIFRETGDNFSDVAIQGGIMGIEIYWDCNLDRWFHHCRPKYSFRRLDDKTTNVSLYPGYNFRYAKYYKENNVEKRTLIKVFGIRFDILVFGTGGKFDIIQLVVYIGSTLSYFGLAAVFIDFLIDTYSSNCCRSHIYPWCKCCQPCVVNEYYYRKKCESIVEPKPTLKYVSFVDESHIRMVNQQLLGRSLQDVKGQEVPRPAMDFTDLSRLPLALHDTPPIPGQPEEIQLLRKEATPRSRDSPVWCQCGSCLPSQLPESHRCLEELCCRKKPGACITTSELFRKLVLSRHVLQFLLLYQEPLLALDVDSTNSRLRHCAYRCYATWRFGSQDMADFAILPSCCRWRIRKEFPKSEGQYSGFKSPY
In words: P2X7 activity of Table 1. It counts as cell-based. The note with it: pIC50 values for P2X7. An outline of the steps: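 FLIPR calcium flux with fluo-3 in 1321N1 cells expressing human P2X7 and HEK293 cells expressing rat P2X7, in HBSS with 2 mM CaCl2 and 2.5 mM probenecid. Antagonist pre-incubated 20 min at room temperature, then BzATP added (100 μM human, 5 μM rat). Peak response over 5 min normalised to 5 μM ionomycin.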

Among the data in patent publication US8163929B2, “Dihydropyridone amides as P2X7 modulators” (Roche Palo Alto LLC, priority 2008, dated 2012) are pIC50 values, retold here.

For the molecule `Cc1ccc(-c2ccnn(CCO)c2=O)cc1NC(=O)C1=CN(C)C(=O)C[C@H]1c1cccc(F)c1` [Compound 93, (S)-4-(3-Fluoro-phenyl)-1-methyl-6-oxo-1,4,5,6-tetrahydro-pyridine-3-carboxylic acid {5-[2-(2-hydroxy-ethyl)-3-oxo-2,3-dihydro-pyridazin-4-yl]-2-methyl-phenyl}-amide], the pIC50 (in general, the IC50 on a negative log10 scale, so that one unit is a factor of ten) came to 7.5. The value for `Cc1ccc(-c2cc(C)n(CCO)n2)cc1NC(=O)C1=CNC(=O)CC1c1ccc(F)c(F)c1` (stereo not drawn) [Compound 85, 4-(3,4-Difluoro-phenyl)-6-oxo-1,4,5,6-tetrahydro-pyridine-3-carboxylic acid {5-[1-(2-hydroxy-ethyl)-5-methyl-1H-pyrazol-3-yl]-2-methyl-phenyl}-amide] was 7.375; that for `CCCn1nccc1-c1ccc(C)c(NC(=O)C2=CNC(=O)C[C@H]2c2ccc(F)cc2)c1` [Compound 32, (S)-4-(4-Fluoro-phenyl)-6-oxo-1,4,5,6-tetrahydro-pyridine-3-carboxylic acid [2-methyl-5-(2-propyl-2H-pyrazol-3-yl)-phenyl]-amide] was 6.885. The same measure for `Cc1cnn(-c2cc(NC(=O)C3=CNC(=O)C[C@H]3c3ccc(F)cc3)c(C)cc2F)c(=O)c1` [Compound 143, (S)-4-(4-Fluoro-phenyl)-6-oxo-1,4,5,6-tetrahydro-pyridine-3-carboxylic acid [4-fluoro-2-methyl-5-(4-methyl-6-oxo-6H-pyridazin-1-yl)-phenyl]-amide]: 7.455; for `CN1C=C(C(=O)Nc2cc(-n3ncccc3=O)ccc2F)[C@H](c2ccc(F)cc2)CC1=O` [Compound 146, (S)-4-(4-Fluoro-phenyl)-1-methyl-6-oxo-1,4,5,6-tetrahydro-pyridine-3-carboxylic acid [2-fluoro-5-(6-oxo-6H-pyridazin-1-yl)-phenyl]-amide]: 5.74; for `Cc1cc(-c2ccc(C)c(NC(=O)C3=CNC(=O)C[C@H]3c3ccc(F)cc3)c2)n(C)n1` [Compound 21, (S)-4-(4-Fluoro-phenyl)-6-oxo-1,4,5,6-tetrahydro-pyridine-3-carboxylic acid [5-(2,5-dimethyl-2H-pyrazol-3-yl)-2-methyl-phenyl]-amide]: 6.525. The same measure for `Cc1ccc(-c2nnnn2C)cc1NC(=O)C1=CNC(=O)C[C@H]1c1ccc(F)cc1` [Compound 9, (S)-4-(4-Fluoro-phenyl)-6-oxo-1,4,5,6-tetrahydro-pyridine-3-carboxylic acid [2-methyl-5-(1-methyl-1H-tetrazol-5-yl)-phenyl]-amide]: 6.1767; for `COC[C@H](O)Cn1nc(-c2ccc(C)c(NC(=O)C3=CN(C)C(=O)C[C@H]3c3ccc(F)cc3)c2)ccc1=O` [Compound 126, (S)-4-(4-Fluoro-phenyl)-1-methyl-6-oxo-1,4,5,6-tetrahydro-pyridine-3-carboxylic acid {5-[1-((R)-2-hydroxy-3-methoxy-propyl)-6-oxo-1,6-dihydro-pyridazin-3-yl]-2-methyl-phenyl}-amide]: 7.615; for `Cc1cc(-c2ccc(F)c(NC(=O)C3=CN(C)C(=O)C[C@H]3c3ccc(F)cc3)c2)n[nH]1` [Compound 137, (S)-4-(4-Fluoro-phenyl)-1-methyl-6-oxo-1,4,5,6-tetrahydro-pyridine-3-carboxylic acid [2-fluoro-5-(5-methyl-1H-pyrazin-3-yl)-phenyl]-amide]: 6.39. For the molecule `Cc1ccc(-c2ncccn2)cc1NC(=O)C1=CNC(=O)C[C@H]1c1cccc(F)c1` [Compound 97, (S)-4-(3-Fluoro-phenyl)-6-oxo-1,4,5,6-tetrahydro-pyridine-3-carboxylic acid (2-methyl-5-pyrimidin-2-yl-phenyl)-amide], the pIC50 stood at 7.09. The value for `Cc1cn(-c2ccc(C)c(NC(=O)C3=CNC(=O)C[C@H]3c3ccc(F)cc3)c2)cn1` [Compound 49, (S)-4-(4-Fluoro-phenyl)-6-oxo-1,4,5,6-tetrahydro-pyridine-3-carboxylic acid [2-methyl-5-(4-methyl-imidazol-1-yl)-phenyl]-amide] was 6.855.

As to `Cc1ccc(-n2ncc(=O)n(CCO)c2=O)cc1NC(=O)C1=CNC(=O)C[C@H]1c1ccc(F)cc1` [Compound 39, (S)-4-(4-Fluoro-phenyl)-6-oxo-1,4,5,6-tetrahydro-pyridine-3-carboxylic acid {5-[4-(2-hydroxy-ethyl)-3,5-dioxo-4,5-dihydro-3H-[1,2,4]triazin-2-yl]-2-methyl-phenyl}-amide], the pIC50 was found to be 7.76. The molecule `Cc1cc(-c2ccc(Cl)c(NC(=O)C3=CNC(=O)C[C@H]3c3ccc(F)cc3)c2)n[nH]1` [Compound 33, (S)-4-(4-Fluoro-phenyl)-6-oxo-1,4,5,6-tetrahydro-pyridine-3-carboxylic acid [2-chloro-5-(5-methyl-1H-pyrazol-3-yl)-phenyl]-amide] displayed a pIC50 of 7.4067. Consider `Cc1ccc(N2CCCC2)cc1NC(=O)C1=CNC(=O)C[C@H]1c1ccc(F)cc1` [Compound 46, (S)-4-(4-Fluoro-phenyl)-6-oxo-1,4,5,6-tetrahydro-pyridine-3-carboxylic acid (2-methyl-5-pyrrolidin-1-yl-phenyl)-amide], for which the pIC50 was 7.873. The value for `Cc1ccc(-c2cc(C(F)(F)F)n(CCO)n2)cc1NC(=O)C1=CN(C)C(=O)C[C@H]1c1cccc(F)c1` [Compound 111, (S)-4-(3-Fluoro-phenyl)-1-methyl-6-oxo-1,4,5,6-tetrahydro-pyridine-3-carboxylic acid {5-[1-(2-hydroxy-ethyl)-5-trifluoromethyl-1H-pyrazol-3-yl]-2-methyl-phenyl}-amide] was 6.895; that for `COCCn1c(C)nnc1-c1ccc(C)c(NC(=O)C2=CNC(=O)C[C@H]2c2ccc(F)cc2)c1` [Compound 48, (S)-4-(4-Fluoro-phenyl)-6-oxo-1,4,5,6-tetrahydro-pyridine-3-carboxylic acid {5-[4-(2-methoxy-ethyl)-5-methyl-4H-[1,2,4]triazol-3-yl]-2-methyl-phenyl}-amide] was 5.86; that for `Cc1ccc(-c2cscn2)cc1NC(=O)C1=CNC(=O)C[C@H]1c1ccc(F)cc1` [Compound 57, (S)-4-(4-Fluoro-phenyl)-6-oxo-1,4,5,6-tetrahydro-pyridine-3-carboxylic acid (2-methyl-5-thiazol-4-yl-phenyl)-amide] was 8.06. Molecule `Cc1cc(F)c(-c2cccn(C)c2=O)cc1NC(=O)C1=CN(C)C(=O)C[C@H]1c1ccc(F)cc1` [Compound 139, (S)-4-(4-Fluoro-phenyl)-1-methyl-6-oxo-1,4,5,6-tetrahydro-pyridine-3-carboxylic acid [4-fluoro-2-methyl-5-(1-methyl-2-oxo-1,2-dihydro-pyridin-3-yl)-phenyl]-amide] came in with a negative logarithm of the IC50 (pIC50) of 7.83.

Molecule `Cc1cnn(-c2ccc(C)c(NC(=O)C3=CNC(=O)C[C@H]3c3ccc(F)cc3)c2)c1` [Compound 29, (S)-4-(4-Fluoro-phenyl)-6-oxo-1,4,5,6-tetrahydro-pyridine-3-carboxylic acid [2-methyl-5-(4-methyl-pyrazol-1-yl)-phenyl]-amide] showed a pIC50 of 7.99. The same measure for `Cc1ccc(-c2ccn(CCO)n2)cc1NC(=O)C1=CNC(=O)C[C@H]1c1ccc(F)cc1` [Compound 84, (S)-4-(4-Fluoro-phenyl)-6-oxo-1,4,5,6-tetrahydro-pyridine-3-carboxylic acid {5-[1-(2-hydroxy-ethyl)-1H-pyrazol-3-yl]-2-methyl-phenyl}-amide]: 7.53. The same measure for `Cc1ccc(-c2cc(C(F)(F)F)[nH]n2)cc1NC(=O)C1=CNC(=O)C[C@H]1c1ccc(F)cc1` [Compound 102, (S)-4-(4-Fluoro-phenyl)-6-oxo-1,4,5,6-tetrahydro-pyridine-3-carboxylic acid [2-methyl-5-(5-trifluoromethyl-1H-pyrazol-3-yl)-phenyl]-amide]: 5.77; for `Cc1ccc(-c2cccn(C)c2=O)cc1NC(=O)C1=CN(C)C(=O)C[C@H]1c1ccc(F)cc1` [Compound 120, (S)-4-(4-Fluoro-phenyl)-1-methyl-6-oxo-1,4,5,6-tetrahydro-pyridine-3-carboxylic acid [2-methyl-5-(1-methyl-2-oxo-1,2-dihydro-pyridin-3-yl)-phenyl]-amide]: 7.855; for `Cc1cc(Cl)c(-c2ccnn(C)c2=O)cc1NC(=O)C1=CNC(=O)C[C@H]1c1ccc(F)cc1` [Compound 127, (S)-4-(4-Fluoro-phenyl)-6-oxo-1,4,5,6-tetrahydro-pyridine-3-carboxylic acid [4-chloro-2-methyl-5-(2-methyl-3-oxo-2,3-dihydro-pyridazin-4-yl)-phenyl]-amide]: 7.843. The value for `Cc1ccc(-c2cc(C)n(C[C@@H](O)CO)n2)cc1NC(=O)C1=CN(C)C(=O)C[C@H]1c1ccc(F)cc1` [Compound 64, (S)-4-(4-Fluoro-phenyl)-1-methyl-6-oxo-1,4,5,6-tetrahydro-pyridine-3-carboxylic acid {5-[1-((R)-2,3-dihydroxy-propyl)-5-methyl-1H-pyrazol-3-yl]-2-methyl-phenyl}-amide] was 7.585.
